Source: patent US5593991A, “Imidazole compounds, use and process of making” (priority 1995, dated 1997)

Test system: human PGHS-2 protein expression
Experiment: Prostoglandin endoperoxide synthase-2 (PGHS-2) protein expression in LPS stimulated human monocytes
Type: cell-based
Settings: for inhibition of LPS induced PGHS-2 protein expression (inactive): up to 10 uM; for inhibited LPS induced PGHS-2 protein expression (active): rank order potency similar to that for inhibiting cytokine production
Method: The following assay describes a method for determining the inhibitory effects of compounds of Formula (I) on human PGHS-2 protein expression in LPS stimulated human monocytes
Human peripheral blood monocytes were isolated from buffy coats by centrifugation through Ficoll and Percoll gradients. Cells were seeded at 2×10^6 /well in 24 well plates and allowed to adhere for 1 hour in RPMI supplemented with 1% human AB serum, 20 mM L-glutamine, Penicillin-Streptomycin and 10 mM HEPES. Compounds were added at various concentrations and incubated at 37° C. for 10 minutes. LPS was added at 50 ng/well (to induce enzyme expression) and incubated overnight at 37° C. The supernatant was removed and cells washed once in cold PBS. The cells were lysed in 100 μl of cold lysis buffer(50 mM Tris/HCl pH 7.5, 150 mM NaCl, 1% NP40, 0.5% sodium deoxycholate, 0.1% SDS, […] DNAse, 0.1% TRITON X-100, 1 mM PMSF, 1 mM leupeptin, 1 mM pepstatin). The lysate was centrifuged (10,000×g for 10 min. at 4° C.) to remove debris and the soluble fraction was subjected to SDS PAGE. analysis (12% gel). Protein separated on the gel were transferred onto nitrocellulose membrane by electrophoretic means for 2 hours at 60 volts. The membrane was pretreated for one hour in PBS/0.1% Tween 20 with 5% non-fat dry milk. After washing 3 times in PBS/Tween buffer, the membrane was incubated with a 1:2000 dilution of a monospecific antiserum to PGHS-2 or a 1:1000 dilution of an antiserum to PGHs-1 in PBS/Tween with 1% BSA for one hour with continuous shaking. The membrane was washed 3X in PBS/Tween and then incubated with a 1:3000 dilution of horseradish peroxidase conjugated donkey antiserum to rabbit Ig (Amersham) in PBS/Tween with 1% BSA for one hour with continuous shaking. The membrane was then washed 3X in PBS/Tween and the ECL immunodetection system (Amersham) was used to detect the level of expression of prostaglandin endoperoxide synthases-2.

Compound	inhibition of LPS induced PGHS-2 protein expression (inactive)	inhibited LPS induced PGHS-2 protein expression (active)
C[S+]([O-])c1ccc(-c2nc3n(c2-c2ccncc2)CCC3)cc1 (stereo not shown) [2-(4-Methylsulfinylphenyl)-3-(4-pyridyl)-6,7-dihydro-(5H)-pyrrolo[1,2-a]imidazole]	inactive	
Fc1ccc(-c2nc3n(c2-c2ccncc2)CCS3)cc1 [6-(4-Fluorophenyl)-2,3-dihydro-5-(4-pyridinyl)imidazo[2,1-b]thiazole]		active
C[C@@H]1C[C@H]2[C@@H]3CCC4=CC(=O)C=C[C@]4(C)[C@@]3(F)[C@@H](O)C[C@]2(C)[C@@]1(O)C(=O)CO [Dexamethasone]		active
Fc1ccc(-c2ncn(CCCN3CCOCC3)c2-c2ccncc2)cc1 [Example 1, 1-[3-(4-Morpholinyl)propyl]-4-(4-fluorophenyl)-5-(4-pyridyl)imidazole]		active
CC(Cc1ccc(O)c(O)c1)C(C)Cc1ccc(O)c(O)c1 (stereo not shown) [NDGA]	inactive	
O=C1CCN(c2ccccc2)N1 [phenidone]	inactive	
COc1ccc(C2CNC(=O)C2)cc1OC1CCCC1 (stereo not shown) [rolipram]	inactive	
